Test results published in EP1828393B1 (priority 2004, dated 2006).

Assay: Miscibility of glycolonitrile with water
Format: physicochemical
Conditions: 25 °C
Description: As the reaction progresses, the α-hydroxynitrile dissolves into the aqueous phase, and eventually a single phase product mixture is obtained. The reaction may also be run by adding the α-hydroxynitrile to the reaction mixture at a rate approximately equal to the enzymatic hydrolysis reaction rate, thereby maintaining a single-phase aqueous reaction mixture, and avoiding the potential problem of substrate inhibition of the enzyme at high starting material concentrations.

N#CCO [Glycolonitrile, glycolonitrile]
miscibility with water: completely miscible with water in all proportions
